Data reported in patent publication US11433086B2, “Combination of T-cell checkpoint inhibitors with inhibitors of e-selectin or CXCR4, or with heterobifunctional inhibitors of both E-selectin and CXCR4” (GlycoMimetics, Inc., priority 2016, dated 2022).

Assays:
[1] = Assessment of side effects in CT26.WT tumor-bearing mice (body weight, mortality, necropsy); assay type: in vivo
Protocol: Animals were weighed on each day of treatment. Individual body weights were recorded 3 times weekly. Treatment-related weight loss in excess of 20% was considered unacceptably toxic. In this report, a dosage level is described as tolerated if treatment-related weight loss (during and two weeks after treatment) is <20% and mortality during this period in the absence of potentially lethal tumor burdens is ≤10%. FIG. 6 provides a graph of the percent mean body weight change for the 12 experimental groups.
Upon death or euthanasia, all animals were necropsied to provide a general assessment of potential cause of death and perhaps target organs for toxicity. The presence or absence of metastases was also noted. Remarkable observations of clinical signs and necropsy findings were tabulated as well as individual and group toxicity findings.
This is an individual toxicity parameter.

[2] = test system: subcutaneous CT26.WT carcinoma xenografts; assay: Anti-cancer activity against subcutaneous CT26.WT carcinoma in Balb/c mice (tumor growth delay, response status); assay type: in vivo; parameters: key to Tumor Growth Delay, statistical comparison vs G1 (Vehicle (Saline)) / Tumor Growth Delay, statistical comparison vs G2 (GMI-1359) / Tumor Growth Delay, statistical comparison vs G3 (anti KLH; Rat IgG2b, LTF-2) / Tumor Growth Delay, statistical comparison vs G4 (anti-mPD-L1) / Tumor Growth Delay, statistical comparison vs G5 (GMI-1359 + anti KLH; Rat IgG2b, LTF-2) / Tumor Growth Delay, statistical comparison vs G6 (GMI-1359 + anti-mPD-L1) / Tumor Growth Delay, statistical comparison vs G7 (Vehicle (Saline)): + = P < 0.05; NS = Nonsignificant
Protocol: The anti-cancer activity of an anti-mPD-L1 antibody (10F.9G2) and GMI-1359 was compared to a rat isotype control antibody against indeterminate subcutaneous CT26.WT carcinoma xenografts in female Balb/c mice. An immune profile of each mouse was determined by sampling tumors and spleens, staining for several markers of an active immune response, and detecting the levels of these markers via flow cytometry. Flow cytometry markers included: T-Cells (CD4^+ and CD8^+), Regulatory T-Cells (Tregs). (CD4^+/CD25^+/FoxP3^+), MDSCs (CD11b^+/Gr1^+) and co-expression of CCR7^+ and CD62^+ added to the existing CD4/CD8 panel.
CT26.WT cells were grown in RPMI 1640 medium which was modified with 1 mM Na pyruvate, 10 mM HEPES, 2.5 g/L glucose and supplemented with 10% nonheat-inactivated Fetal Bovine Serum (FBS) and 1% 100X Penicillin/Streptomycin/L-Glutamine (PSG). The growth environment was maintained in an incubator with a 5% CO2 atmosphere at 37° C.
When expansion was complete, the cells were trypsinized using 0.25% trypsin-EDTA solution. Following cell detachment, the trypsin was inactivated by dilution with complete growth medium and any clumps of cells were separated by pipetting. The cells were centrifuged at 200 rcf for 8 minutes at 4° C., the supernatant was aspirated, and the pellet was re-suspended in cold Dulbecco's Phosphate Buffered Saline (DPBS) by pipetting. An aliquot of the homogeneous cell suspension was diluted in a trypan blue solution and counted using a Luna automated cell counter. The preimplantation cell viability was 92%. The cell suspension was centrifuged at 200 rcf for 8 minutes at 4° C. The supernatant was aspirated and the cell pellet was re-suspended in cold serum-free medium to generate a final concentration of 2.50E+06 trypan-excluding cells/mi. The cell suspension was maintained on wet ice during implantation. Following implantation, an aliquot of the remaining cells was diluted with a trypan blue solution and counted to determine the post-implantation cell viability (91%).
Test animals were implanted subcutaneously, high in the axilla (just under the fore limb) on Day 0 with 5.00E+05 cells in 0.2 ml of serum-free medium using a 27-gauge needle and syringe.
All mice were sorted into study groups based on body weights such that the mean body weights in each group was within 10% of the overall mean. Treatment began on Day 3.
GMI-1359 was dosed intraperitoneally at 40 mg/kg, every day for 20 days (Days 3-22) and every day for 12 days (Days 3-14) for Groups 2 and 8, respectively.
Anti-KLH; Rat IgG2b, LTF-2 was dosed intraperitoneally at 10 mg/kg, every 3 days for 2 treatments, with 3 days off for 2.5 weeks (Days 3, 6, 10, 13 and 17) for Group 3. Group 9 was dosed intraperitoneally at 10 mg/kg, every 3 days for 2 treatments, with 3 days off for 2 weeks (Days 3, 6, 10 and 13).
Groups 4 and 10: Anti-mPD-L1, 10F.9G2 was dosed intraperitoneally at 10 mg/kg, every 3 days for 2 treatments, with 3 days off for 2.5 weeks (Days 3, 6, 10, 13 and 17) for Group 4.
Group 10 was dosed intraperitoneally at 10 mg/kg, every 3 days for 2 treatments, with 3 days off for 2 weeks (Days 3, 6, 10 and 13).
GMI-1359 was dosed in combination with anti-KLH; Rat IgG2b, LTF intraperitoneally at 40 mg/kg and 10 mg/kg, respectively. In Group 5, GMI-1359 was dosed once a day for 20 days (Days 3-22) and anti-KLH; Rat IgG2b was given every 3 days for 2 treatments, with 3 days off for 2.5 weeks (Days 3, 6, 10, 13 and 17). In Group 11, GMI-1359 was dosed once a day for 12 days (Days 3-14) and anti-KLH; Rat IgG2b was dosed every 3 days for 2 treatments, with 3 days off for 2 weeks and (Days 3, 6, 10 and 13). On days when both compounds were dosed, GMI-1359 was given first and then anti-KLH; Rat IgG2b, LTF was given within minutes thereafter.
Groups 6 and 12: GMI-1359 and anti-mPD-L1, 10F.9G2 were dosed in a combination regimen intraperitoneally at 40 mg/kg and 10 mg/kg, respectively. […]

[3] = Groups 2-6: GMI-1359 40 mg/kg IP QDx20, antibody 10 mg/kg IP Days 3,6,10,13,17
[4] = listed as groups G8-G12 (sampling groups)
[5] = printed directly after the Group 8 / Group 12 values, group not named

With `CCC1CC(C(=O)NCCNCc2ccc(CN3CCCNCCNCCCNCC3)c(Br)c2)CC(OC2OC(CO)C(O)C(O[C@@H](CC3CCCCC3)C(=O)O)C2NC(C)=O)C1OC1OC(C)C(O)C(O)C1O` (stereo partly shown) [GMI-1359] the “mean weight gain during the treatment regimen” value ([1]; Groups 2-6) was 16.8%, the treatment-related mortality ([1]; Groups 2-6) was “no treatment-related mortality” and the “weight loss associated with treatment” value ([1]; Groups 2-6) was “No weight loss”. For the same compound, the “tolerance of treatment” value [1, 3] was “well tolerated”, the “mean weight gain during the treatment regimen” value ([1]; Groups 8-12) was 7.0% and the treatment-related mortality ([1]; Groups 8-12) was “no treatment-related mortality”. The “weight loss associated with treatment” value ([1]; Groups 8-12) was “No weight loss”, the “necropsy findings” value ([1]; Groups 8-12, Day 15) was “unremarkable” and the “tolerance of treatment” value ([1]; Groups 8-12: GMI-1359 40 mg/kg IP QDx12, antibody 10 mg/kg IP Days 3,6,10,13) was “well tolerated”. The “tolerance of treatment, summary” value ([1]; summary over both regimens / all groups) was “well tolerated”, the “disease status of the group” value ([2]; Group 2, single agent) was “all animals were identified with progressive disease” and the “statistical significance of anti-tumor effect” value ([2]; Groups 2, 4, 6) was “did not produce a statistically significant (p>0.05) anti-tumor effect”. For the same compound, the “regressions or tumor free survivors” value ([2]; Groups 2-6) was “no regressions or tumor free survivors”, the “median time to evaluation size (750 mm^3) from the start of dosing” value ([2]; Groups 2-6: GMI-1359 40 mg/kg IP QDx20 (Days 3-22), antibody 10 mg/kg IP Days 3,6,10,13,17) was 18.4 days and the “median post Day 9 tumor volume doubling time” value [2, 3] was 3.3 days. For the same compound, the “incidence of progressive disease” value ([2]; Groups 2-6, tumor burden >=2 fold that on Day 9) was 100%, the “tumor growth delay (T-C)” value ([2]; Groups 2-6 vs Group 1 saline, evaluation size 750 mm^3, GMI-1359 40 mg/kg IP QDx20, antibody 10 mg/kg IP Days 3,6,10,13,17) was 2.5 days and the “regressions or tumor free survivors” value ([2]; Groups 8-12 (sampling groups)) was “no regressions or tumor free survivors”. For the same compound, the “incidence of progressive disease” value ([2]; Groups 8-12 (sampling groups, euthanized Day 15)) was 100%, the “median time to evaluation size” value ([2]; Groups 8-12: GMI-1359 40 mg/kg IP QDx12 (Days 3-14), antibody 10 mg/kg IP Days 3,6,10,13, euthanized Day 15) was 14.3 days and the “median post Day 9 tumor volume doubling time” value ([2]; Groups 8-12: GMI-1359 40 mg/kg IP QDx12, antibody 10 mg/kg IP Days 3,6,10,13, euthanized Day 15) was 1.8 days. For the same compound, the “Tumor Growth Delay, statistical comparison vs G1 (Vehicle (Saline))” value ([2]; listed as groups G2-G6, time to evaluation size 750 mm^3) was “NS”, the “Tumor Growth Delay, statistical comparison vs G1 (Vehicle (Saline))” value [2, 4] was “NS” and the “Tumor Growth Delay, statistical comparison vs G2 (GMI-1359)” value [2, 4] was “NS”. The “Tumor Growth Delay, statistical comparison vs G3 (anti KLH; Rat IgG2b, LTF-2)” value [2, 4] was “NS”, the “Tumor Growth Delay, statistical comparison vs G4 (anti-mPD-L1)” value [2, 4] was “NS” and the “Tumor Growth Delay, statistical comparison vs G5 (GMI-1359 + anti KLH; Rat IgG2b, LTF-2)” value [2, 4] was “NS”. The “Tumor Growth Delay, statistical comparison vs G6 (GMI-1359 + anti-mPD-L1)” value [2, 4] was “NS”, the “Tumor Growth Delay, statistical comparison vs G7 (Vehicle (Saline))” value [2, 4] was “NS” and the “median time to progression” value [2, 5] was 14.5 days. For the same compound, the “progression free survival period” value [2, 5] was 5.5 days.
